Consider 6 compounds from patent US6337417B1, “N-phenyltetrahydrophthalamic acid derivatives, methods of producing same, and herbicides containing same as effective components” (Central Glass Co., Ltd., priority 1994, dated 2002).

Format in all cases: in vivo
Set-up in all cases: key: 5: completely killed; 4: seriously injured; 3: considerably injured; 2: somewhat injured; 1: slightly injured; 0: not injured (normally grown)

One series relates to paddy rice. The experiment in a line: Experiment 4 flooded soil treatment: injury to paddy rice. The settings on record: 4 weeks after treatment. From the text: (§1) Paddy soil (clay loam) was put into a pot so as to have a surface area of 1/15500 ares. Uniformly mixed seeds of several kinds of weeds, viz., nobie (barnyardgrass, Echinochloa spp.), broad-leaved weeds, hotarui (bulrush, Scirpus juncoides) and tamagayatsuri (small-flowered umbrellaplant, Cyperus difformis), were sown in the surface layer of the soil in each pot, and then paddy rice seedlings at the two- or three-leaved stage were transplanted into each pot to a depth of 2 cm, and water was fed into each pot so as to provide a 3 cm deep water layer on the soil surface. After 3 days, in other words at the initial stage of germination of nobie (barnyardgrass, Echinochloa spp.), a predetermined amount of a selected compound obtained in a manner analogous to Example 11 in the form of diluted aqueous solution was dropped into the water layer in each pot. After that, the pots were kept in a glass chamber to allow the paddy rice and the weeds to grow, and after the lapse of 4 weeks from the treatment with the selected compounds, the herbicidal effects and the degree of injury to the paddy rice were evaluated. The evaluation of the herbicidal effects was similarly conducted as to that of Experiment 1.

Series [1] concerns hotarui (bulrush, Scirpus juncoides). Briefly: Experiment 4 flooded soil treatment: hotarui. The settings on record: 4 weeks after treatment.
From the text: as §1

For another series, the system named is broad-leaved weeds. Briefly: Experiment 4 flooded soil treatment: broad-leaved weeds. The settings on record: 4 weeks after treatment.
From the text: as §1

A further series has as its system garden radish. Briefly: Experiment 5 foliage treatment: garden radish. The settings on record: foliage spray of wettable powder suspension, evaluated 4 weeks after treatment. Here is the method:
(§2) Upon seedling stage (two- or three-leaved stage) of rice, cockspur (Panicum crus-galli), garden radish, aobiyu (slender amaranth, Amaranthus viridis) and mehishiba (henry crabgrass, Digitaria cliaris) which were grown on a cultivated soil put in pots of 1/15500 ares, a selected compound obtained in a manner analogous to Example 11, in suspended wettable powder, was sprayed to each plant. After that, the pots were kept in a glass chamber to allow each plant to grow, and after the lapse of 4 weeks from the treatment with the selected compounds the herbicidal effects were evaluated. The evaluation of the herbicidal effects was similarly conducted as that of Experiment 1.

The test system of series [2] is nobie (barnyardgrass, Echinochloa spp.). The experiment in a line: Experiment 4 flooded soil treatment: nobie. The settings on record: 4 weeks after treatment.
From the text: as §1

Series [3] relates to aobiyu (slender amaranth, Amaranthus viridis). Briefly: Experiment 5 foliage treatment: aobiyu. The settings on record: foliage spray of wettable powder suspension, evaluated 4 weeks after treatment. Here is the method:
as §2

For another series, the system named is rice. The experiment in a line: Experiment 5 foliage treatment: rice. The settings on record: foliage spray of wettable powder suspension, evaluated 4 weeks after treatment. As to the method: as §2
For series [4], the system named is cockspur (Panicum crus-galli). The experiment in a line: Experiment 5 foliage treatment: cockspur. The settings on record: foliage spray of wettable powder suspension, evaluated 4 weeks after treatment. As to the method: as §2
Series [5] deals with tamagayatsuri (small-flowered umbrellaplant, Cyperus difformis). The experiment in a line: Experiment 4 flooded soil treatment: tamagayatsuri. The settings on record: 4 weeks after treatment.
From the text: as §1

The subject of series [6] is mehishiba (henry crabgrass, Digitaria cliaris). Briefly: Experiment 5 foliage treatment: mehishiba. The settings on record: foliage spray of wettable powder suspension, evaluated 4 weeks after treatment. As to the method:
as §2

Turning to `C#CC(C)Oc1cc(N(C(=O)C2=C(C(=O)OCCC)CCCC2)C(=O)c2cccnc2)c(F)cc1Cl` (stereo not drawn) [Compound No. 58], the “Injury of Paddy” value in the series with paddy rice (3.13 g/10a) was 0; in the series on paddy rice (6.25 g/10a), 0.5. For the same compound, the “Herbicidal Effect hotarui” value in series [1] (3.13 g/10a) amounted to 4; in series [1] (6.25 g/10a), 4.5. Moreover, the “Herbicidal Effect broad-leaved weed” value in the series with broad-leaved weeds (3.13 g/10a) and in the series with broad-leaved weeds (6.25 g/10a) was 5 throughout. The “Herbicidal Effect garden radish” value in the series on garden radish (40 g/10a) and in the series on garden radish (80 g/10a) was 5 each time. Also, the “Herbicidal Effect nobie” value in series [2] (3.13 g/10a) and in series [2] (6.25 g/10a) was 5 throughout. Moreover, the “Herbicidal Effect aobiyu” value in series [3] (40 g/10a) and in [3] (80 g/10a) was 5 throughout. Further, the “Herbicidal Effect rice” value with rice (40 g/10a) and in the series on rice (80 g/10a) was 1 throughout. Further, the “Herbicidal Effect cockspur” value in [4] (40 g/10a) and in series [4] (80 g/10a) was 1 each time. Also, the “Herbicidal Effect tamagayatsuri” value in [5] (3.13 g/10a) and in series [5] (6.25 g/10a) was 5 in each case. Moreover, the “Herbicidal Effect mehishiba” value in [6] (40 g/10a) is listed as 1; in series [6] (80 g/10a), 3.
Turning to `COC(=O)C1=C(C(=O)N(C(=O)c2cccnc2)c2cc(OC(C)C)c(Cl)cc2F)CCCC1` [compound 56], the “Injury of Paddy” value in the series with paddy rice (3.13 g/10a) and in the series on paddy rice (6.25 g/10a) was 0.5 each time. In addition, the “Herbicidal Effect hotarui” value in [1] (3.13 g/10a) and in series [1] (6.25 g/10a) was 5 each time. Also, the “Herbicidal Effect broad-leaved weed” value with broad-leaved weeds (3.13 g/10a) turned out to be 4.5; in the series with broad-leaved weeds (6.25 g/10a), 5. The “Herbicidal Effect garden radish” value in the series with garden radish (40 g/10a) and in the series on garden radish (80 g/10a) was 5 throughout. For the same compound, the “Herbicidal Effect nobie” value in [2] (3.13 g/10a) and in [2] (6.25 g/10a) was 5 in each case. In addition, the “Herbicidal Effect aobiyu” value in [3] (40 g/10a) and in [3] (80 g/10a) was 5 each time. The “Herbicidal Effect rice” value in the series with rice (40 g/10a) and with rice (80 g/10a) was 1 each time. In addition, the “Herbicidal Effect cockspur” value in [4] (40 g/10a) and in series [4] (80 g/10a) was 1 throughout. Moreover, the “Herbicidal Effect tamagayatsuri” value in [5] (3.13 g/10a) and in series [5] (6.25 g/10a) was 5 in each case. In addition, the “Herbicidal Effect mehishiba” value in series [6] (40 g/10a) and in [6] (80 g/10a) was 1 in each case.
On to `C#CC(C)Oc1cc(N(C(=O)C2=C(C(=O)OCCCC)CCCC2)C(=O)c2cccnc2)c(F)cc1Cl` (stereo not drawn) [compound 59], for which the “Injury of Paddy” value in the series on paddy rice (3.13 g/10a) and in the series with paddy rice (6.25 g/10a) was 0.5 in each case. The “Herbicidal Effect hotarui” value in series [1] (3.13 g/10a) and in series [1] (6.25 g/10a) was 4 throughout. The “Herbicidal Effect broad-leaved weed” value with broad-leaved weeds (3.13 g/10a) and in the series on broad-leaved weeds (6.25 g/10a) was 5 throughout. Moreover, the “Herbicidal Effect garden radish” value in the series with garden radish (40 g/10a) and with garden radish (80 g/10a) was 5 throughout. Besides, the “Herbicidal Effect nobie” value in series [2] (3.13 g/10a) and in series [2] (6.25 g/10a) was 5 each time. The “Herbicidal Effect aobiyu” value in series [3] (40 g/10a) and in series [3] (80 g/10a) was 5 each time. Besides, the “Herbicidal Effect rice” value with rice (40 g/10a) and with rice (80 g/10a) was 1 throughout. Further, the results for the “Herbicidal Effect cockspur” value in [4] (40 g/10a) and in series [4] (80 g/10a) were 0 and 1, respectively. The “Herbicidal Effect tamagayatsuri” value in series [5] (3.13 g/10a) and in [5] (6.25 g/10a) was 5 each time. Further, the “Herbicidal Effect mehishiba” value in series [6] (40 g/10a) and in series [6] (80 g/10a) was 1 each time.
As for `C#CCOC(=O)C1=C(C(=O)N(C(=O)c2cccnc2)c2cc(OC(C)C#C)c(Cl)cc2F)CCCC1` (stereo not drawn) [compound 61], the “Injury of Paddy” value in the series on paddy rice (3.13 g/10a) is given as 0; in the series on paddy rice (6.25 g/10a), 0.5. Also, the “Herbicidal Effect hotarui” value in series [1] (3.13 g/10a) and in series [1] (6.25 g/10a) was 4 throughout. The “Herbicidal Effect broad-leaved weed” value with broad-leaved weeds (3.13 g/10a) and in the series with broad-leaved weeds (6.25 g/10a) was 5 in each case. The “Herbicidal Effect garden radish” value in the series on garden radish (40 g/10a) and in the series with garden radish (80 g/10a) was 5 each time. Besides, the “Herbicidal Effect nobie” value in series [2] (3.13 g/10a) and in [2] (6.25 g/10a) was 5 throughout. Also, the “Herbicidal Effect aobiyu” value in series [3] (40 g/10a) and in series [3] (80 g/10a) was 5 throughout. Further, the “Herbicidal Effect rice” value in the series on rice (40 g/10a) is 3; in the series with rice (80 g/10a) it was 4. Moreover, the “Herbicidal Effect cockspur” value in series [4] (40 g/10a) and in [4] (80 g/10a) was 2 each time. For the same compound, the “Herbicidal Effect tamagayatsuri” value in [5] (3.13 g/10a) and in [5] (6.25 g/10a) was 5 throughout. Moreover, the figures for the “Herbicidal Effect mehishiba” value in series [6] (40 g/10a) and in [6] (80 g/10a) were 4.5 and 5, respectively.
For the compound `C#CC(C)Oc1cc(N(C(=O)C2=C(C(=O)OC3CCCC3)CCCC2)C(=O)c2cccnc2)c(F)cc1Cl` (stereo not drawn) [compound 62], the “Injury of Paddy” value came out at 0 in the series on paddy rice (3.13 g/10a) and 0.5 in the series on paddy rice (6.25 g/10a). The “Herbicidal Effect hotarui” value in [1] (3.13 g/10a) and in series [1] (6.25 g/10a) was 4 each time. Also, the “Herbicidal Effect broad-leaved weed” value in the series with broad-leaved weeds (3.13 g/10a) and in the series on broad-leaved weeds (6.25 g/10a) was 5 in each case. The “Herbicidal Effect garden radish” value with garden radish (40 g/10a) turned out to be 4.5; in the series on garden radish (80 g/10a), 5. Besides, the “Herbicidal Effect nobie” value in series [2] (3.13 g/10a) and in series [2] (6.25 g/10a) was 5 throughout. The “Herbicidal Effect aobiyu” value in series [3] (40 g/10a) and in series [3] (80 g/10a) was 5 throughout. Also, the “Herbicidal Effect rice” value with rice (40 g/10a) and in the series with rice (80 g/10a) was 1 throughout. The “Herbicidal Effect cockspur” value in [4] (40 g/10a) and in series [4] (80 g/10a) was 1 throughout. Moreover, the “Herbicidal Effect tamagayatsuri” value in series [5] (3.13 g/10a) and in [5] (6.25 g/10a) was 5 in each case. Moreover, the “Herbicidal Effect mehishiba” value in series [6] (40 g/10a) and in series [6] (80 g/10a) was 1 throughout.
With `COC(=O)CSc1cc(N(C(=O)C2=C(C(=O)OC)CCCC2)C(=O)c2cccnc2)c(F)cc1Cl` [compound 63], the “Injury of Paddy” value in the series with paddy rice (3.13 g/10a) and in the series on paddy rice (6.25 g/10a) was 0 throughout. The “Herbicidal Effect hotarui” value in series [1] (3.13 g/10a) and in series [1] (6.25 g/10a) was 4 each time. The “Herbicidal Effect broad-leaved weed” value in the series with broad-leaved weeds (3.13 g/10a) and in the series with broad-leaved weeds (6.25 g/10a) was 5 in each case. Further, the “Herbicidal Effect garden radish” value with garden radish (40 g/10a) and in the series with garden radish (80 g/10a) was 4.5 each time. Moreover, the “Herbicidal Effect nobie” value in [2] (3.13 g/10a) and in [2] (6.25 g/10a) was 5 each time. Also, the “Herbicidal Effect aobiyu” value in series [3] (40 g/10a) and in series [3] (80 g/10a) was 5 in each case. Further, the “Herbicidal Effect rice” value with rice (40 g/10a) and in the series on rice (80 g/10a) was 1 each time. Also, the “Herbicidal Effect cockspur” value in [4] (40 g/10a) and in series [4] (80 g/10a) was 1 each time. The results for the “Herbicidal Effect tamagayatsuri” value in [5] (3.13 g/10a) and in series [5] (6.25 g/10a) were 4 and 5, respectively. Also, the “Herbicidal Effect mehishiba” value in series [6] (40 g/10a) and in [6] (80 g/10a) was 1 each time.
